Experimental data published in PMC6214909, “An asparagine/glycine switch governs product specificity of human N-terminal methyltransferase NTMT2” (Communications Biology, 2018).

Assays:
[1] = test system: NTMT1; assay: MALDI-MS methyltransferase activity assay, NTMT1; format: biochemical, human; conditions: 2 μM NTMT1, 10 μM peptide, 200 μM SAM, 25 mM Tris–HCl pH 7.5, 50 mM KCl, 37 °C, overnight
Method: (§1) A mixture (36 μL) of 2 μM enzyme (NTMT1 or NTMT2), 25 mM Tris–HCl pH 7.5, 50 mM KCl and 200 μM SAM was incubated at 37 °C for 5 min. 4 μL of 100 μM peptide substrate (final concentration 10 μM) was then added to initiate the reaction. The reaction was incubated overnight and then stopped with quenching solution (20 mM NH4H2PO4, 0.4% (v/v) TFA in 1:1 acetonitrile/water). Reaction mixtures were analyzed with an Applied Biosystems Voyager matrix-assisted laser desorption/ionization time-of-flight mass spectrometer. Processing of all spectra results in Data Explorer included application of a noise filter (correlation factor of 1.0) and a baseline correction. Areas of the monoisotopic peaks for all relevant species were combined to obtain a total area for each sample. The fraction of each methylation state was calculated by summing the areas of all the monoisotopic peaks for that state ([M + H]^+, [M + Na]^+, [M + K]^+, [M – H + 2Na]^+, [M – H + 2 K]^+, and [M – H + Na + K]^+) and then dividing by the total area.

[2] = biological target: T1, NTMT2 (Homo sapiens, UniProt Q5VVY1); assay: MALDI-MS methyltransferase activity assay, NTMT2; format: biochemical; conditions: 2 μM NTMT2, 10 μM peptide, 200 μM SAM, 25 mM Tris–HCl pH 7.5, 50 mM KCl, 37 °C, overnight
T1 construct: DNA encoding human NTMT2 (residues 58–278) was amplified by PCR; SUMO (His8-SUMO of the pET28-MKH8SUMO vector, with TEV site) (N, cleaved yes); made in house; host or cells: Escherichia coli BL21 (DE3)
T1 sequence (Q5VVY1 58-278): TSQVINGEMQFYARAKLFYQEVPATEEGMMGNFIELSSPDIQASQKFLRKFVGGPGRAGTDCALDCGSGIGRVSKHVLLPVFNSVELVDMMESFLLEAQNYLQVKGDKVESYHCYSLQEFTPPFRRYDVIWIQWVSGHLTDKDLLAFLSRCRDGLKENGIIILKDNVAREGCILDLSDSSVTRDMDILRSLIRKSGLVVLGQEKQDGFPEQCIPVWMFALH
Method: as §1

[3] = test system: NTMT2-N89G mutant; assay: MALDI-MS methyltransferase activity assay, NTMT2-N89G mutant; format: biochemical, human; conditions: NTMT2-N89G under the same conditions (2 μM enzyme, 10 μM peptide, 200 μM SAM, pH 7.5, 37 °C, overnight)
Method: as §1

Row | Substance | Di-methylated fraction [1] | Mono-methylated fraction [1] | Trimethylated fraction [1] | Unmethylated fraction [1] | Di-methylated fraction [2] | Mono-methylated fraction [2] | Trimethylated fraction [2] | Unmethylated fraction [2] | Di-methylated fraction [3] | Mono-methylated fraction [3] | Trimethylated fraction [3] | Unmethylated fraction [3]
1 | IPKRIA [synthetic XPKRIA hexapeptide substrate, X = I] | 20.10% | 43.34% | 0.00% | 36.56% | 0.00% | 0.00% | 0.00% | 100.00% | 0.00% | 5.08% | 0.00% | 94.92%
2 | LPKRIA [synthetic XPKRIA hexapeptide substrate, X = L] | 70.78% | 26.28% | 2.94% | 0.00% | 0.00% | 3.16% | 0.00% | 96.84% | 0.00% | 18.14% | 0.00% | 81.86%
3 | MPKRIA [synthetic XPKRIA hexapeptide substrate, X = M] | 91.26% | 0.00% | 8.74% | 0.00% | 0.00% | 41.45% | 0.00% | 58.55% | 0.00% | 100.00% | 0.00% | 0.00%
4 | PPKRIA [synthetic XPKRIA hexapeptide substrate, X = P] | 100.00% | 0.00% | 0.00% | 0.00% | 10.19% | 38.00% | 0.00% | 51.81% | 4.45% | 65.75% | 0.00% | 
5 | QPKRIA [synthetic XPKRIA hexapeptide substrate, X = Q] | 100.00% | 0.00% | 0.00% | 0.00% | 0.00% | 0.00% | 0.00% | 100.00% | 0.00% | 32.39% | 0.00% | 67.61%

More lines, now with the values ahead:

Row | Di-methylated fraction [1] | Mono-methylated fraction [1] | Trimethylated fraction [1] | Unmethylated fraction [1] | Di-methylated fraction [2] | Mono-methylated fraction [2] | Trimethylated fraction [2] | Unmethylated fraction [2] | Di-methylated fraction [3] | Mono-methylated fraction [3] | Trimethylated fraction [3] | Unmethylated fraction [3] | Substance
6 | 96.14% | 0.00% | 3.86% | 0.00% | 0.00% | 5.19% | 0.00% | 94.81% | 0.00% | 20.40% | 0.00% | 79.60% | KPKRIA [synthetic XPKRIA hexapeptide substrate, X = K]
7 | 100.00% | 0.00% | 0.00% | 0.00% | 0.00% | 0.00% | 0.00% | 100.00% | 0.00% | 21.58% | 0.00% |  | NPKRIA [synthetic XPKRIA hexapeptide substrate, X = N]
8 | 98.24% | 0.00% | 1.76% | 0.00% | 0.00% | 23.35% | 0.00% | 76.65% | 0.00% | 47.86% | 0.00% | 52.14% | RPKRIA [synthetic XPKRIA hexapeptide substrate, X = R]
